Measured values published in US11806342B2, “Diiodohydroxyquinoline for the treatment of clostridium difficile infection” (Purdue Research Foundation, priority 2019, dated 2023).
Converted amounts (≈) assume the structure as drawn.

Legend:
C. difficile ATCC 43255 = assay: Spore inhibition assay; assay type: cell-based, Clostridium difficile; details: C. difficile ATCC 43255, ½×MIC or 1×MIC, five days
Experimental: (§1) The spore inhibition assay was performed as described in previous reports to investigate the effect of diiodohydroxyquinoline on C. difficile spore formation. Briefly, […], the bacterial suspension was split into microcentrifuge tubes and drugs were added (in triplicates) at concentrations equal to ½×MIC or 1×MIC. Tubes were then, incubated anaerobically for five days at 37° C. Thereafter, an aliquot from each tube was diluted and plated on BHIS agar plates supplemented with 0.1% taurocholic acid, to count the total bacterial counts (vegetative bacteria+spores). The remaining solution was centrifuged, and the pellet was suspended in PBS, stored overnight at 4° C., and subsequently shock-heated at 70° C. for 30 minutes to kill the vegetative cells. The resulting solution was serially diluted and plated to determine the heat-resistant spore counts. Spore inhibition assay was performed as described in previous reports to investigate the effect of DIHQ on C. difficile spore formation. Briefly, log-phase cultures of C. difficile strains (ATCC BAA-1870, ATCC 43255, and NR-49277) were diluted in BHIS to an initial density of ˜10^6 CFU/mL. Afterwards, the bacterial suspension was split in small tubes and the drugs were added (in triplicates) at concentrations equal to ½×MIC or 1×MIC. Tubes were then incubated anaerobically for 5 days at 37° C. After that, an aliquot from each tube was diluted and plated on BHIS agar plates supplemented with 0.1% taurocholic acid, to count the total bacterial count (vegetative bacteria+spores). The remaining solution was centrifuged, and the pellet was suspended in PBS and stored overnight at 4° C. then shock heated at 70° C. for 30 minutes to kill the vegetative cells. The resulting solution was serially diluted and plated to determine the heat-resistant spore counts.

[1] = system: C. difficile ATCC BAA-1870; assay: Spore inhibition assay; assay type: cell-based, Clostridium difficile; details: C. difficile ATCC BAA-1870, ½×MIC or 1×MIC, five days
Experimental: as §1

C. difficile NR-49277 = assay: Spore inhibition assay; assay type: cell-based, Clostridium difficile; details: C. difficile NR-49277, ½×MIC or 1×MIC, five days
Experimental: as §1

[2] = system: 38 tested C. difficile strains; assay: MIC and MBC over the panel of clinical isolates (MIC50, MIC90, range); assay type: cell-based, Clostridium difficile
Experimental: MIC50 and MIC90 are the minimum concentration of each agent that inhibited growth of 50% and 90% of the tested isolates, respectively. The minimum bactericidal concentration (MBC) of these drugs was tested by plating 5 μL from wells with no growth onto BHIS agar plates. The MBC was categorized as the lowest concentration that reduced bacterial growth by 99.9% MIC50 and MIC90 are the minimum concentration of each agent that inhibited the growth of 50% and 90% of the tested isolates, respectively. The minimum bactericidal concentration (MBC) of these drugs was tested by plating 5 μL from wells with no growth onto BHIS agar plates. The MBC was categorized as the lowest concentration that reduced bacterial growth by 99.9% [29-31].

C. difficile ATCC 1801 = assay: Checkerboard assay, DIHQ with metronidazole or vancomycin; assay type: cell-based, Clostridium difficile
Experimental: (§2) Interactions between diiodohydroxyquinoline and the anticlostridial drugs (metronidazole and vancomycin) against Clostridium difficile clinical isolates. […] The fractional inhibitory concentration index (ΣFIC) was calculated for each interaction. Interactions where the ΣFIC index was ≤0.5 were categorized as synergistic (SYN).

C. difficile P11 = assay: as above; assay type: cell-based, Clostridium difficile
Experimental: as §2

C. difficile P30 = assay: as above; assay type: cell-based, Clostridium difficile
Experimental: as §2

C. difficile ATCC 9689 = assay: as above; assay type: cell-based, Clostridium difficile
Experimental: as §2

C. difficile P19 = assay: as above; assay type: cell-based, Clostridium difficile
Experimental: as §2

C. difficile I6 = assay: as above; assay type: cell-based, Clostridium difficile
Experimental: as §2

Bacteroides dorei HM-718 = assay: MIC against normal gut microflora, broth microdilution; assay type: cell-based; details: Phocaeicola dorei, HM718; Bacteroides dorei HM-718; read-out: MIC
Experimental: (§3) In vitro antimicrobial evaluation of diiodohydroxyquinoline against normal microflora. The broth microdilution assay was utilized to determine the MICs of DIHQ and control antibiotics against commensal organisms that compose he human gut microflora, as described elsewhere. A bacterial solution equivalent to 0.5 McFarland standard was prepared and diluted in BHIS broth (for Bifidobacterium and Bacteroides) or in MRS broth (for Lactobacillus) to achieve a bacterial concentration of about 5×10^5 CFU/mL. Then, drugs were added and serially diluted along the plates.

[3] = system: Bacteroides fragilis HM-711; assay: as above; assay type: cell-based; details: HM711; Bacteroides fragilis HM-711; read-out: MIC
Experimental: as §3

Bacteroides dorei HM-717 = assay: as above; assay type: cell-based; details: Phocaeicola dorei, HM717; Bacteroides dorei HM-717; read-out: MIC
Experimental: as §3

[4] = system: Bacteroides fragilis HM-709; assay: as above; assay type: cell-based; details: HM709; Bacteroides fragilis HM-709; read-out: MIC
Experimental: as §3

[5] = system: Lactobacillus crispatus HM-371; assay: as above; assay type: cell-based; details: HM371; Lactobacillus crispatus HM-371; read-out: MIC
Experimental: as §3

[6] = system: Bifidobacterium angulatum HM-1189; assay: as above; assay type: cell-based; details: HM1189; Bifidobacterium angulatum HM-1189; read-out: MIC
Experimental: as §3

[7] = system: Bifidobacterium breve HM-411; assay: as above; assay type: cell-based; details: HM411; Bifidobacterium breve HM-411; read-out: MIC
Experimental: as §3

[8] = system: Bifidobacterium longum HM-847; assay: as above; assay type: cell-based; details: HM847; Bifidobacterium longum HM-847; read-out: MIC
Experimental: as §3

[9] = system: Bifidobacterium breve HM-1120; assay: as above; assay type: cell-based; details: HM1120; Bifidobacterium breve HM-1120; read-out: MIC
Experimental: as §3

## Cc1ncc([N+](=O)[O-])n1CCO [Metronidazole, metronidazole]
C. difficile ATCC 43255
  reduction in spore count (in words): almost no reduction
[1]
  reduction in spore count (in words): almost no reduction
C. difficile NR-49277
  reduction in spore count (in words): almost no reduction
[2]; Clostridioides difficile, concentration inhibiting growth of 90% of the tested isolates, read-out: MIC90
  MIC90: 0.25 µg/mL (≈ 1.46 µM)
[2]; over the 38 tested C. difficile strains
  MIC range: 0.06 to 0.5 µg/mL
C. difficile ATCC 1801; C. difficile ATCC 1801
  MIC of metronidazole combined with DIHQ: 0.03 µg/mL
C. difficile ATCC 1801; Clostridioides difficile, ATCC1801, C. difficile ATCC 1801, Table 3, read-out: MIC alone
  MIC: 0.25 µg/mL
C. difficile P11; C. difficile P11
  MIC of metronidazole combined with DIHQ: 0.03 µg/mL
C. difficile P11; Clostridioides difficile, C. difficile P11, Table 3, read-out: MIC alone
  MIC: 0.25 µg/mL
C. difficile P30; C. difficile P30
  MIC of metronidazole combined with DIHQ: 0.06 µg/mL
C. difficile P30; Clostridioides difficile, C. difficile P30, Table 3, read-out: MIC alone
  MIC: 0.5 µg/mL
C. difficile ATCC 9689; C. difficile ATCC 9689
  MIC of metronidazole combined with DIHQ: 0.03 µg/mL
C. difficile ATCC 9689; Clostridioides difficile, ATCC9689, C. difficile ATCC 9689, Table 3, read-out: MIC alone
  MIC: 0.25 µg/mL
C. difficile P19; C. difficile P19
  MIC of metronidazole combined with DIHQ: 0.06 µg/mL
C. difficile P19; Clostridioides difficile, C. difficile P19, Table 3, read-out: MIC alone
  MIC: 0.5 µg/mL
C. difficile I6; C. difficile I6
  MIC of metronidazole combined with DIHQ: 0.03 µg/mL
C. difficile I6; Clostridioides difficile, C. difficile I6, Table 3, read-out: MIC alone
  MIC: 0.25 µg/mL
Bacteroides dorei HM-718
  MIC: ≤ 1 µg/mL
[3]
  MIC: ≤ 1 µg/mL
Bacteroides dorei HM-717
  MIC: ≤ 1 µg/mL
[4]
  MIC: 2 µg/mL (≈ 11.7 µM)
[5]
  MIC: > 128 µg/mL
[6]
  MIC: ≤ 1 µg/mL
[7]
  MIC: 2 µg/mL (≈ 11.7 µM)
[8]
  MIC: ≤ 1 µg/mL
[9]
  MIC: ≤ 1 µg/mL
